The values below come from patent publication US8178496B2, “Photoreactive regulator of glutamate receptor function and methods of use thereof” (The Regents of the University of California, priority 2007, dated 2012).

pEC50: −log10 of the molar value. Entries after “also recorded” stand apart in the source; their conditions may differ.

Data set [1] relates to cultured rat hippocampal neurons. Put plainly: Whole-cell current clamp recording of cultured hippocampal neurons. The data set is classed as cell-based. On the procedure: (§1) Patch clamp recordings were carried out using an Axopatch 200A amplifier in the whole cell mode. HEK cells were voltage clamped at −60 mV and hippocampal neurons were current clamped at −65 mV. Pipettes had resistances 2-6 MΩ. For experiments in HEK cells, pipettes were filled with a solution containing (in mM): 145 CsCl, 5 EGTA, 0.5 CaCl2, 1.0 MgCl2 and 10 HEPES at pH7.2 (CsOH). The extracellular solution contained (in mM): 135 NaCl, 5.4 KCl, 0.9 MgCl2, 1.8 CaCl2, and 10 HEPES at pH 7.6 (NaOH). Cells were preincubated for 10 min in control solution containing 300 mg/l Concanavalin A type VI (Sigma) in order to block desensitization. For experiments in hippocampal neurons, pipettes were filled with a solution containing (in mM): 10 NaCl, 1 EGTA, 135 K-gluconate, 2.0 MgCl2, 10 HEPES and 2 Mg-ATP at pH7.4 (KOH). The extracellular solution contained (in mM): 138 NaCl, 1.5 KCl, 1.2 MgCl2, 2.5 CaCl2, 10 glucose and 10 HEPES at pH 7.3 (NaOH). […] Illumination was applied using a TILL Photonics Polychrome V monochromator through a 40×/0.60 W objective (power output: 4.8 mW/mm^2 at 500 nm and 1.8 mW/mm^2 at 380 nm, as measured with a Newport optical power meter). Data was recorded with pClamp software, which was also used to automatically control the monochromator by means of sequencing keys. […]

In another data set the target is T1, wild-type iGluR6(Q) (Homo sapiens, UniProt Q13002).
T1 construct: expressed in transfected cells; host or cells: HEK293
T1 sequence (Q13002 32-908): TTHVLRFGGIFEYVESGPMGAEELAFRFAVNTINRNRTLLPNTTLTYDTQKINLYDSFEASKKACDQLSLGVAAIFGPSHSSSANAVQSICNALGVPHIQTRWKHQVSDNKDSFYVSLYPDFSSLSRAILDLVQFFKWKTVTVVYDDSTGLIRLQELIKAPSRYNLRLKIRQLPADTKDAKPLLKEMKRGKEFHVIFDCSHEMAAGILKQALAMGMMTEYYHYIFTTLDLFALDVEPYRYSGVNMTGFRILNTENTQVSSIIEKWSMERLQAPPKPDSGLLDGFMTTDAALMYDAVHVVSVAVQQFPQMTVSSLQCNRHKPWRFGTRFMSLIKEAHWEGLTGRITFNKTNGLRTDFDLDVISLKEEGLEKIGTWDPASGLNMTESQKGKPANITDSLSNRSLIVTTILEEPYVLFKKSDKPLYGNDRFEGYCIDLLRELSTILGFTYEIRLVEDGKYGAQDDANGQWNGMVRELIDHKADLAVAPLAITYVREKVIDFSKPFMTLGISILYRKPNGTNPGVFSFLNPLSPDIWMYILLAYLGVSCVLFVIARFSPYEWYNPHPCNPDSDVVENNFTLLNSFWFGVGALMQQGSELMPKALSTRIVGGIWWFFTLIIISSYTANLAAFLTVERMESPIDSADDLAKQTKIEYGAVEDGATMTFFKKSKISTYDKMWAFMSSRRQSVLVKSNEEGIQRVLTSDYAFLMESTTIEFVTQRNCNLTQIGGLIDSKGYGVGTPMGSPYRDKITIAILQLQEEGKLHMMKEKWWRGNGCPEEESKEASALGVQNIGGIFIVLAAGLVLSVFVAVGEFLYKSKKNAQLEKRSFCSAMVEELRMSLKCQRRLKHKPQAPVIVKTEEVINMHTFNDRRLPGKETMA
Briefly: Whole-cell voltage clamp recording in HEK293 cells expressing iGluR6(Q). The data set is classed as cell-based. Here is the method: (§2) HEK293 cells were plated at approximately 3×10^6 cells/ml on poly-L-lysine-coated glass coverslips (Deutsche Spiegelglas, Carolina Biological) and maintained in DMEM with 5% newborn calf serum, 0.2 mg/ml streptomycin, and 200 U/ml penicillin at 37° C. Cells were transiently transfected with various plasmids using lipofectamine 2000 (Invitrogen). The amount of total transfected ionotropic glutamate receptor-2 (iGluR2), iGluR5, and iGluR6 DNA and enhanced yellow fluorescent protein (EYFP) fusion DNA per 0.5 mL well was fixed at 0.7 μg and 0.3 μg, respectively. All recordings were carried out 24 to 48 h after transfection.
(§3) Patch clamp recordings were carried out using an Axopatch 200A amplifier in the whole cell mode. HEK cells were voltage clamped at −60 mV and hippocampal neurons were current clamped at −65 mV. Pipettes had resistances 2-6 MΩ. For experiments in HEK cells, pipettes were filled with a solution containing (in mM): 145 CsCl, 5 EGTA, 0.5 CaCl2, 1.0 MgCl2 and 10 HEPES at pH7.2 (CsOH). The extracellular solution contained (in mM): 135 NaCl, 5.4 KCl, 0.9 MgCl2, 1.8 CaCl2, and 10 HEPES at pH 7.6 (NaOH). Cells were preincubated for 10 min in control solution containing 300 mg/l Concanavalin A type VI (Sigma) in order to block desensitization. For experiments in hippocampal neurons, pipettes were filled with a solution containing (in mM): 10 NaCl, 1 EGTA, 135 K-gluconate, 2.0 MgCl2, 10 HEPES and 2 Mg-ATP at pH7.4 (KOH). The extracellular solution contained (in mM): 138 NaCl, 1.5 KCl, 1.2 MgCl2, 2.5 CaCl2, 10 glucose and 10 HEPES at pH 7.3 (NaOH). L-Glutamate, DNQX, and compound 2 were applied as reported in text and figures with complete exchange of the bath solution occurring in less than 10 sec. Compound 2 was not pre-irradiated prior to perfusion, but the bath and coverslip were continuously under illumination as denoted in traces. Following complete exchange of the bath, perfusion of 2 was stopped prior to switching illumination wavelengths. Illumination was applied using a TILL Photonics Polychrome V monochromator through a 40×/0.60 W objective (power output: 4.8 mW/mm^2 at 500 nm and 1.8 mW/mm^2 at 380 nm, as measured with a Newport optical power meter). Data was recorded with pClamp software, which was also used to automatically control the monochromator by means of sequencing keys. The results are representative data from multiple cells in at least three independent cultures.

The next data set relates to iGluR. Put plainly: Rates of light-driven channel activation and deactivation (whole-cell patch clamp). The data set is classed as cell-based. Particulars: mean±s.e.m., n=3. Here is the method: as §1
Another data set relates to iGluR2(Q)flip-L483Y. Put plainly: Whole-cell voltage clamp recording in HEK293 cells expressing iGluR2. Format: cell-based. On the procedure: as §2
Patch clamp recordings were carried out using an Axopatch 200A amplifier in the whole cell mode. HEK cells were voltage clamped at −60 mV and hippocampal neurons were current clamped at −65 mV. Pipettes had resistances 2-6 MΩ. For experiments in HEK cells, pipettes were filled with a solution containing (in mM): 145 CsCl, 5 EGTA, 0.5 CaCl2, 1.0 MgCl2 and 10 HEPES at pH7.2 (CsOH). […] Illumination was applied using a TILL Photonics Polychrome V monochromator through a 40×/0.60 W objective (power output: 4.8 mW/mm^2 at 500 nm and 1.8 mW/mm^2 at 380 nm, as measured with a Newport optical power meter). Data was recorded with pClamp software, which was also used to automatically control the monochromator by means of sequencing keys. […]

For another data set, the target named is T2, iGluR5(Q) (Homo sapiens, UniProt P39086).
T2 construct: expressed in transfected cells; host or cells: HEK293
T2 sequence (P39086 31-918): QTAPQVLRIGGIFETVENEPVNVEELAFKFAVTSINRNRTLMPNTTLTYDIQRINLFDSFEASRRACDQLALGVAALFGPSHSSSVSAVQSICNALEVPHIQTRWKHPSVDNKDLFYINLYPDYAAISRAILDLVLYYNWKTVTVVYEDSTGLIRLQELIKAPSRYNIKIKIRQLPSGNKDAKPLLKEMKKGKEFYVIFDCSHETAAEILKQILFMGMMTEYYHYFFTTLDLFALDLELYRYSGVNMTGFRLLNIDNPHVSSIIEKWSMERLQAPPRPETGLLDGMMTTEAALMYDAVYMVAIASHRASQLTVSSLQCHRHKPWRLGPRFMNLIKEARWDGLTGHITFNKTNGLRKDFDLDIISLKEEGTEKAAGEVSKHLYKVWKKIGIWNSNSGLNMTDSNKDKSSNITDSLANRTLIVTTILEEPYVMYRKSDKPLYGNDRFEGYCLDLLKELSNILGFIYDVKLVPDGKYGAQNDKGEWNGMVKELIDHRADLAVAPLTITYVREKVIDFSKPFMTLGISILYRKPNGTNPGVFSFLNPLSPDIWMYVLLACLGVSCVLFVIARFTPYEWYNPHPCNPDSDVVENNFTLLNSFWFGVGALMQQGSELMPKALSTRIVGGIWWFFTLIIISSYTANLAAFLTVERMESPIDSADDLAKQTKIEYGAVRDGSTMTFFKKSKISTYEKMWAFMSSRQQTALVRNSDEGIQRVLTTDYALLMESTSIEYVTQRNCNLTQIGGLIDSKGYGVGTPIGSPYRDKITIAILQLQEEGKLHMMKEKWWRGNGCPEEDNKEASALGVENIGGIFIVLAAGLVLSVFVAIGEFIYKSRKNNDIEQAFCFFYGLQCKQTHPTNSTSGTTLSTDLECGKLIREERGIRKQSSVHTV
Briefly: Whole-cell voltage clamp dose-response in HEK293 cells expressing iGluR5(Q). The data set is classed as cell-based. Here is the method: as §2, §3

A short description of data set [2]: Photostationary state determination by NMR with in situ irradiation. Format: physicochemical. Particulars: D2O, mean±s.e.m., n=3. On the procedure: Cis/trans photoisomerization of 2 was studied by ^1H NMR, with in situ irradiation of the sample using a Polychrome V system monochromator (TILL Photonics) containing a 150 W Xenon short arc lamp with an output range of 320-680 nm. The half-power bandwidth was 14 nm. A 500 μl aliquot of a 100 mM sample in D2O was prepared in a screw-capped 528-TR-7 NMR tube (Wilmad). A FT-600-UMT fiber optic cable (NA 0.39) (Thorlabs) was coupled at one end to the monochromator using a custom fitting and the other end inserted into the NMR tube a few millimeters above the solution. Each sample was irradiated at the desired wavelength for 30 minutes to reach the photostationary state and 480 scans were required to obtain reasonable signal-to-noise ratios. The output from the fiber optic cable between 340-480 nm ranged from 0.3-9.0 μW/cm^2. Data were processed by isolating aromatic cis-trans ^1H signals and summing their integrals to 1.0. All data were obtained in triplicate and averaged.

As to `O=C1N=c2cc([N+](=O)[O-])c([N+](=O)[O-])cc2=NC1=O` [DNQX, 6,7-dinitroquinoxaline-2,3-dione, reference compound], the “block of light activation with 2” value in data set [1] (10 μM DNQX together with 25 μM 2, 380 and 500 nm illumination) is listed as “Pharmacological block of light activation”; at wild-type iGluR6(Q) (10 μM DNQX together with 50 μM 2, 380 and 500 nm illumination), “Pharmacological block of light activation”. The “block of the activity of 2” value on wild-type iGluR6(Q) (HEK293 expressing iGluR6(Q)) was “competitively blocked”.

On to `N[C@@H](CC(C/C=C/c1ccc(/N=N/c2ccccc2)cc1)C(=O)O)C(=O)O` (stereo partly shown) [Compound 2], for which the “rate of deactivation τoff-380nm” value in the data set on iGluR (380 nm, 1.8 mW/mm^2) amounted to 250 ± 14 ms. For the same compound, the “rate of activation τon-500nm” value with iGluR (500 nm, 4.8 mW/mm^2) is 310 ± 15 ms. The “light-controlled action potential firing” value in data set [1] (25 μM, current clamped at −65 mV, no ConA, switching between 380 and 500 nm) was “sufficient to trigger, and extinguish, sustained trains of action potentials”. In addition, in the data set with iGluR2(Q)flip-L483Y (250 μM, 380 and 500 nm illumination), the “inward currents in the presence of 250 μM 2” value is “failed to produce inward currents; also recorded: no effect in either the trans- (500 nm) or cis-state (380 nm)”. At iGluR5(Q) (dose-response curves under 380 and 500 nm light), the “efficacy with respect to a 300 μM glutamate evoked response” value is “approximately half-maximal efficacy”. Besides, the “selectivity at iGluR5 over iGluR6 receptors” value at iGluR5(Q) (dose-response curves, iGluR5(Q) versus iGluR6(Q)) was “high selectivity”. Moreover, on iGluR5(Q) (under 380 nm light), the “reduction of apparent agonist affinity (EC50) relative to 500 nm” value was approximately 10 fold. For the same compound, the negative logarithm of the EC50 (pEC50) at iGluR5(Q) (under 500 nm illumination, read-out: apparent agonist affinity (EC50)) was 5.05. Besides, the “photostationary state content of cis-2” value in data set [2] (380 nm irradiation) was found to be 76.3±0.3%. For the same compound, the “photostationary state content of trans-2” value in data set [2] (500 nm irradiation) came out at 89±1%. The “extent of iGluR6 channel activation” value on wild-type iGluR6(Q) (25 μM) is “only activated to a small extent”. Moreover, the “channel activation (inward currents) depending on wavelength of irradiation” value at wild-type iGluR6(Q) (HEK293, ConA 0.3 mg/mL pretreated, trans- versus cis-state) was “increased inward currents in the trans-relative to the cis-state”.

Regarding `N[C@@H](CCC(=O)O)C(=O)O` [Glu, reference compound], in the data set on iGluR2(Q)flip-L483Y (300 μM), the “inward current evoked by 300 μM Glu” value is given as “evokes a large inward current”.
